{
  "source": "patent US5730982A",
  "about": "“Therapeutic use of hypervariable region of monoclonal antibody M195 and constructs thereof” (Sloan-Kettering Institute for Cancer Research, priority 1995, dated 1998)",
  "tested_on": "myeloid leukemic progenitor cells [CFU-GM-(L)] from AML patients",
  "experiment": "Purging of fresh leukemic cells from AML patients, CFU-GM-(L) colony inhibition",
  "type": "cell-based",
  "conditions": "Homo sapiens, fresh leukemic cells from 4 patients with AML, 4-HC 100 uM/L, VP-16 5 ug/ml where combined",
  "procedure": "We report the results of a preclinical study comparing four different purging protocols using promyelocytic human cell line HL-60 and myeloid leukemic progenitor cells [CFU-GM-(L)] from AML patients assayed in semisolid culture. We studied the antileukemic effect of 1] complement-dependent lysis by 2 different MoAbs (M195 and F23; 40 ug/ml), reactive with distinct antigens found on early myeloid cells and monocytes, used alone and in combinations; 2] 4-Hydroperoxycyclophosphamide (4-HC) (100 uM/L) alone or 3] combined with VP-16 (5 ug/ml) and 4] a cocktail of 1-3 protocols as above (ie combined immunochemotherapy). Four logs of HL-60 tumor cell elimination was observed after 1 hour incubation with both MoAbs plus 4-HC+VP-16 while the single treatment (ie immunotherapy or chemotherapy) provided 1.5 and 3.0 logs of colony forming inhibition respectively.\nThe combined treatment of MoAbs and 4-HC+VP-16 produced a 3-log reduction of CFU-GM-(L) colony formation. By comparison the mean recovery of committed normal bone marrow progenitors after incubation with MoAbs and complement was 19.5% for CFU-GM, 32.3% for BFU-E and 16.7% for CFU-MIX.",
  "data": [
    {"smiles": "O=P1(N(CCCl)CCCl)NC(OO)CCO1", "note": "(stereo not shown) [4-HC, 4-Hydroperoxycyclophosphamide]", "values": [
      {"measurement": "inhibition at 100 µM", "result": 95.5, "unit": "%"}
    ]}
  ]
}
